From ChEMBL document CHEMBL5126535, “Quinoline heterocyclic containing plant and marine candidates against drug-resistant Mycobacterium tuberculosis: A systematic drug-ability investigation” (Eur J Med Chem, 2022) come the findings set out here.

Each structure is given as a SMILES string. Values after ≈ are worked out from the molar mass of the structure shown.

The test system of the first test is Mycobacterium tuberculosis. Kind of test: Antibacterial activity against Mycobacterium tuberculosis H37Ra ATCC 25177 assessed as no visible mycobacterial growth incubated for 7 to 8 days by light microscope based spectrophotometric analysis. The test is classed as functional. The note with it: time 7-8 day.
Consider `COc1c(O)ccc2c1cnc1c3cc4c(cc3ccc21)OCO4` [DECARINE], for which the MIC is 3.1 µg/mL (≈ 9.71 µM).

A further test has as its system Mycobacterium tuberculosis. Kind of test: Antibacterial activity against Mycobacterium tuberculosis H37Ra assessed as inhibition of bacterial growth incubated for 72 hrs by microbroth dilution method. Type of test: functional.
Settings: not given
(Dilution methods test growth across graded concentrations, often in twofold steps.)
As to `CCCC/C=C\CCCCCCCc1cc(=O)c2ccccc2n1C`, the MIC stood at 5 µg/mL (≈ 14.7 µM).

A further test has as its system Mycobacterium tuberculosis. The experiment in a line: Antibacterial activity against Mycobacterium tuberculosis. The test is classed as functional, organism-based.
Settings: not given
In turn, `CSc1cnc2c3c(nc4ccccc4c13)C(CCNC(C)=O)=CC2=O` [ISODIPLAMINE] yielded an MIC of 6.18 µg/mL (≈ 17 µM).

Take `CC(=O)NCCc1c2c(c3nccc4c3c1Nc1ccccc1-4)NC(=O)CS2` [SHERMILAMINE B]: the MIC is 12.5 µg/mL (≈ 32 µM). Same read-out and setting: the figure for `O=C1c2c(O)ccnc2-c2nccc3c2c1nc1ccccc13` is greater than 12.6 µg/mL; for `CSC1=C(CCNC(C)=O)c2nc3ccccc3c3ccnc(c23)C1=O` [DIPLAMINE] it is 6.18 µg/mL (≈ 17 µM); for `COc1cc2c(cc1OC)-c1cc(CC(C)=O)c3cc4c(cc3c1N(C)C2)OCO4` it is 6.25 µg/mL (≈ 15.4 µM). Take `O=C1c2cccnc2-c2nccc3c2c1nc1ccccc13` [ASCIDIDEMIN]: the MIC was 0.01 µg/mL (≈ 0.0353 µM).

The molecule `CC(=O)NCCc1c2c3c(ccnc3c3ncsc13)-c1ccccc1N2` [KUANONIAMINE D] yielded an MIC of 12.2 µg/mL (≈ 34 µM).

With `COc1ccc2c(c[n+](C)c3c4cc5c(cc4ccc23)OCO5)c1OC` [CHELERYTHRINE], the MIC was 3.1 µg/mL. On the same count and under the same terms, then `O=C1c2scnc2-c2nccc3c2c1nc1ccccc13` [KUANONIAMINE A], with 3.1 µg/mL (≈ 10.7 µM); and `OC12C=C(c3nccc4c3[nH]c3ccccc34)C3CCN(CCCC/C=C\CC1)CC31CC34CCC(CCCN3C21)O4` (stereo not drawn), with 1.77 µg/mL (≈ 3.13 µM). As for `CC(=O)NCCc1c2c(c3nccc4c3c1Nc1ccccc1-4)OCS2` [LISSOCLINIDINE], the MIC was determined as 6.18 µg/mL (≈ 17 µM). As for `On1ccc2c3ccccc3nc-2c1C1=CC2(O)CCC/C=C\CCCN3CCC1C1(CC4/C=C\CCCCN4C21)C3` (stereo not drawn), it took 3.9 µg/mL (≈ 6.91 µM) to inhibit growth (MIC).

`COc1cc2c(cc1O)CCNC21C[S+]([O-])C2c3c(OC(C)=O)c(C)c4c(c3C(COC1=O)N1C(C#N)C3CC5CC(C)C(OC)C(O)C5C(C21)N3C)OCO4` (stereo not drawn) gave a minimum inhibitory concentration (MIC) of 1.6 µg/mL (≈ 2.02 µM).

For a further test, the system named is Mycobacterium tuberculosis. The experiment in a line: Antibacterial activity against Mycobacterium tuberculosis measured after 14 days. The test is classed as functional. The note with it: 336 h, time 14 day.
The molecule `COC(=O)C1=C2Nc3ccccc3C23CCN2C(O)C4(CC5CC67CC(=O)OC6CCN6CCC8(c9cccc(OC)c9N(C4)C58)C67)C4OCCC4(C1)C23` (stereo not drawn) displayed an MIC of 4 µg/mL (≈ 5.46 µM). The molecule `COc1ccc2cc1-c1cc(ccc1O)CC1c3cc4c(cc3CCN1C)Oc1c(OC)cc3c(c1O4)C(C2)N(C)CC3` (stereo not drawn) showed an MIC of 3.1 µg/mL (≈ 5.38 µM). In turn, `CCCCCc1cc(OC)c2ccccc2n1` gave an MIC of 6.25 µg/mL (≈ 27.3 µM). In the case of `COc1ccc2cc1Oc1ccc(cc1)CC1NCCc3cc(OC)c(cc31)Oc1c(OC)c(OC)cc3c1C(C2)N(C)CC3` (stereo not drawn), it took 0.25 µg/mL (≈ 0.411 µM) to inhibit growth (MIC). The same measure, in the same setting: the figure for `COc1cc(CCc2ccc3c(c2)OCO3)nc2ccccc12` [CUSPARINE] is 6.25 µg/mL (≈ 20.3 µM).

Regarding `COc1ccc(CCc2cc(OC)c3ccccc3n2)cc1OC`, inhibition of growth (MIC) required 6.25 µg/mL (≈ 19.3 µM).

`Cn1c(=O)ccc2ccccc21` displayed an MIC of 25 µg/mL (≈ 157 µM). In turn, `COc1ccc(CCC2CCc3ccccc3N2C)cc1OC` (stereo not drawn) had a minimum inhibitory concentration (MIC) of 6 µg/mL (≈ 19.3 µM). In turn, `CN1c2ccccc2CCC1CCc1ccc2c(c1)OCO2` (stereo not drawn) gave an MIC of 6.25 µg/mL (≈ 21.2 µM). For `COc1ccc2c(c1)c(-c1c3c4c(cc5c(c4c4ccc(OC)cc14)OCO5)CCN3)c1c3c(cc4c(c32)OCO4)CCN1` [BIDEBILINE E], the minimum inhibitory concentration (MIC) was found to be 6.25 µg/mL (≈ 10.7 µM).

`COc1ccc2cc1-c1cc(ccc1O)CC1NCCc3cc4c(cc31)Oc1c(c(OC)cc3c1C(C2)N(C)CC3)O4` (stereo not drawn) showed an MIC of 3.1 µg/mL (≈ 5.51 µM).

The subject of another test is Mycobacterium tuberculosis. Kind of test: Antibacterial activity against Mycobacterium tuberculosis incubated for 5 days by Alamar blue staining method. Type of test: functional. The note with it: 120 h, time 5 day. (Resazurin is reduced to fluorescent resorufin, in cell work by metabolically active cells.)
The molecule `COc1cc2c(c3c[n+](C)c4c5cc6c(cc5ccc4c13)OCO6)OCO2` came in with an MIC of 12.5 µg/mL.

The molecule `Cc1ccnc2c1C(=O)c1ccccc1C2=O` [CLEISTOPHOLINE] returned an MIC of 12.5 µg/mL (≈ 56 µM). On the same count and under the same terms, the figure for `COc1cc2c3c(OC)cc4c(c3c[n+](C)c2c2cc3c(cc12)OCO3)OCO4` is 12.5 µg/mL; for `COc1ccc2c(c1OC)C(OC)N(C)c1c-2ccc2cc3c(cc12)OCO3` (stereo not drawn) it is 12.5 µg/mL (≈ 32.9 µM); for `COc1cc(-c2ccccc2)nc2ccccc12` it is 6.25 µg/mL (≈ 26.6 µM). Molecule `COc1cc2c(c3c1-c1ccc4cc5c(cc4c1N(C)C3OC)OCO5)OCO2` (stereo not drawn) had an MIC of 25 µg/mL (≈ 63.5 µM). As to `COc1cc2c[n+](C)c3c4cc5c(cc4ccc3c2cc1OC)OCO5` [NITIDINE], the MIC was 12.5 µg/mL.

The subject of a further test is Mycobacterium tuberculosis. Kind of test: Antibacterial activity against Mycobacterium tuberculosis H37Rv ATCC 27294 by broth microdilution based microplate Alamar blue staining method. Type of test: functional.
Settings: not given
Regarding `CC(=O)C[C@@H]1CC2C(C3c4[nH]c5ccccc5c4CCN31)C(O)C13CC/C=C\CCCCN1CC21CC/C=C\CCCCNC13` (stereo partly drawn), 1.9 µg/mL (≈ 3.11 µM) was the least that counted as inhibitory (MIC). For `CC(=O)C[C@H]1CC2C(C3c4[nH]c5ccccc5c4CCN31)C(O)C13CC/C=C\CCCCN1CC21CC/C=C\CCCCNC13` (stereo partly drawn), the MIC was found to be 1.57 µg/mL (≈ 2.57 µM).

A further test has as its system Mycolicibacterium fortuitum. The experiment in a line: Antibacterial activity against Mycobacterium fortuitum ATCC 6841 measured after 24 hrs. The test is classed as functional.
Settings: not given
`Cn1c2nc3ccccc3c-2cc2ccccc21` [NEOCRYPTOLEPINE] came in with an MIC of 31 µg/mL (≈ 133 µM).

Molecule `Cn1c2c3ccccc3nc-2c(-c2c3nc4ccccc4c-3n(C)c3ccccc23)c2ccccc21` [BISCRYPTOLEPINE] yielded a minimum inhibitory concentration (MIC) of 6.25 µg/mL (≈ 13.5 µM).

A further test has as its system Mycolicibacterium fortuitum. Kind of test: Antibacterial activity against Mycobacterium fortuitum measured after 72 hrs by 96-well microtitre plate assay.
Settings: not given
Type of test: functional.
As for `C[n+]1c2ccccc2cc2[n-]c3ccccc3c21` [CRYPTOLEPINE], the MIC amounted to 16 µg/mL (≈ 68.9 µM).

The test system of the next test is Mycobacterium tuberculosis. The experiment in a line: Antibacterial activity against Mycobacterium tuberculosis H37Rv ATCC 27294 incubated for 6 weeks by MGIT assay. The note with it: H37Rv ATCC 27294, 1008 h. Type of test: functional.
Regarding `COc1ccc2c3c(c4cc(OC)c(OC)cc4c2c1)CN1CCC[C@H]1C3`, the MIC worked out at 12.5 µg/mL (≈ 34.4 µM).

A further test deals with Mycobacterium tuberculosis. The experiment in a line: Antibacterial activity against Mycobacterium tuberculosis H37Rv ATCC 27294 incubated for 5 days by Alamar blue staining method. The test is classed as functional. The note with it: H37Rv ATCC 27294, 120 h, time 5 day.
`COc1cc2c(cc1OC)-c1c3c(cc4ccnc(c14)C2=O)OCO3` [DICENTRINONE] came in with an MIC of 50 µg/mL (≈ 149 µM).

Another test deals with Mycobacterium tuberculosis. The experiment in a line: Antibacterial activity against Mycobacterium tuberculosis H37Ra by MABA method.
Settings: not given
The test is classed as functional.
`COc1cccc2c1C(=O)c1nccc3cc4c(c-2c13)OCO4` [OXOSTEPHANINE]: the minimum inhibitory concentration (MIC) worked out at 25 µg/mL (≈ 81.9 µM).

The next test deals with Mycolicibacterium aurum. Kind of test: Antibacterial activity against Mycobacterium aurum measured after 72 hrs. The test is classed as functional.
Settings: not given
The molecule `C[n+]1cc2c3c(ccc2c2ccc4cc5c(cc4c21)OCO5)OCO3` [SANGUINARIUM] had an MIC of 24.5 µg/mL.

The next test has as its system Mycolicibacterium smegmatis. Kind of test: Antibacterial activity against Mycobacterium smegmatis measured after 72 hrs.
Settings: not given
Type of test: functional.
`C[n+]1cc2c3c(ccc2c2ccc4cc5c(cc4c21)OCO5)OCO3` [SANGUINARIUM] had an MIC of 24.5 µg/mL.

Usually MIC stands for the least concentration at which growth counts as inhibited.
